Like-named read-outs stand apart in the source and are kept apart here.
Target: T1, PKC epsilon (Homo sapiens, UniProt Q02156)
T1 construct: purchased Invitrogen P2282
T1 sequence (Q02156 1-737): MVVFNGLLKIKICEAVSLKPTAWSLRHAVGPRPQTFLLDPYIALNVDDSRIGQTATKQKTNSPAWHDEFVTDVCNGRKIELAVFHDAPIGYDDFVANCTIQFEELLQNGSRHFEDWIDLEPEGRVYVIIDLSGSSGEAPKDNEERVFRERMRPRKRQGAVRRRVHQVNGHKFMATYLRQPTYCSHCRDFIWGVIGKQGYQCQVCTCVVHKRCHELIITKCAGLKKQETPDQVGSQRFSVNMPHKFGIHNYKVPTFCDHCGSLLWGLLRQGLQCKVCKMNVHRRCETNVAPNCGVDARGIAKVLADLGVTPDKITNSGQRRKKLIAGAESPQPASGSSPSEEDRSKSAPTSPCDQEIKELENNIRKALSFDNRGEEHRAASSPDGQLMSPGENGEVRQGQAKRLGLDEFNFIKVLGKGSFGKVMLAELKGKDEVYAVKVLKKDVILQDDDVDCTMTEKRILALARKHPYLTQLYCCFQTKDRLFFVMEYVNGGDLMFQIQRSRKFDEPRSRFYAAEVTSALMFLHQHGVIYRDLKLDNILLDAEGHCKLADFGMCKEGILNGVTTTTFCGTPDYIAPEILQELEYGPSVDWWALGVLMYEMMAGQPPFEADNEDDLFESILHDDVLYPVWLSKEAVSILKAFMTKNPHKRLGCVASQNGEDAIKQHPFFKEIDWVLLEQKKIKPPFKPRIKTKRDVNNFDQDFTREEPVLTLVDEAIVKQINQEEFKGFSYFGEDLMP
Experiment: Biochemical assay for PKC epsilon (fluorescence polarization, Protein Kinase C Assay Kit, Red)
Conditions: read-out: IC50 μM PKCε
Experimental: The compounds were tested for inhibition of PKC epsilon.
The inhibition assays were performed with a fluorescence polarization (FP) assay using the commercially available Protein Kinase C Assay Kit, Red, from Invitrogen (Product ID. No. P2941), essentially in accordance with the protocol supplied by the manufacturer. […] The isozyme PKC epsilon was also obtained from Invitrogen (Product ID No. P2282).
Staurosporine was used as a positive control (2 μM).
To perform the assay, 2 μl of a solution of the compound to be tested in DMSO (at each concentration) was added to 6 μl of a solution of the enzyme in 10 mM HEPES, 5 mM dithiotreitol, 0.1% Triton X-100, pH 7.4. The final concentration of the enzymes was 10 ng/ml.
After incubating for 30 minutes at room temperature, 4 μl of a mixture of ATP and the protein substrate in 60 mM HEPES (pH7.4), 15 mM MgCl2, 0.3 mM CaCl2, 0.06% NP40 was added.
After incubating for 80 minutes at room temperature, 3 μl of a mix solution of 500 mM EDTA (stop solution) and the Rhodamine-based PKC Red Tracer (from the Protein Kinase C Assay Kit) in BGG/phosphate buffer (pH7.4) with 0.02% NaN3 and 0.1% Triton X-100 was added and 5 μl of a the Anti-Phosphoserine antibody (also from the Protein Kinase C Assay Kit) in BGG/phosphate buffer (pH7.4) with 0.02% NaN3.
The results were fitted to a curve using the XL-Fit algorithm and […] were calculated for each fitted curve, again using the XL-Fit algorithm.

[1] = Table 2, compounds of Formula XIII
[2] = compounds of Formula XIV, Table 3

Compound	IC50 [1] [µM]	IC50 [2] [µM]
4-(1-Amino-2-{[1-(4-chloro-phenyl)- cyclobutanecarbonyl]-amino}-ethyl)- N-pyridin-4-yl-benzamide [Compound 337]	0.05 to 0.5	
4-(1-Amino-2-{[1-(4-fluoro-phenyl)- cyclobutanecarbonyl]-amino}-ethyl)- N-pyridin-4-yl-benzamide [Compound 338]	< 0.05	
4-(1-Amino-2-{[1-(4-fluoro-phenyl)- cyclohexanecarbonyl]-amino}-ethyl)- N-pyridin-4-yl-benzamide [Compound 343]	< 0.05	
4-[1-Amino-2-(5-fluoro- indan-1-ylcarbamoyl)-ethyl]- N-pyridin-4-yl-benzamide [Compound 361]		0.05 to 0.5
4-[1-Amino-2-(6-fluoro- indan-1-ylcarbamoyl)-ethyl]- N-pyridin-4-yl-benzamide [Compound 362]		0.05 to 0.5
7-Fluoro-indan-1-carboxylic acid {2- amino-2-[4-(pyridin-4-ylcarbamoyl)- phenyl]-ethyl}-amide [Compound 353]	0.05 to 0.5	
NC(CNC(=O)Cc1ccccc1)c1ccc(C(=O)Nc2ccncc2)cc1 (stereo not drawn) [Compound 328, 4-(1-Amino-2-phenylacetylamino-ethyl)-N-pyridin-4-yl-benzamide]	0.05 to 0.5	
NC(CNC(=O)Cc1ccc(Cl)c(Cl)c1)c1ccc(C(=O)Nc2ccncc2)cc1 (stereo not drawn) [Compound 329, 4-{1-Amino-2-[2-(3,4-dichloro-phenyl)-acetylamino]-ethyl}-N-pyridin-4-yl-benzamide]	0.05 to 0.5	
NC(CNC(=O)Cc1ccc(F)c(Cl)c1)c1ccc(C(=O)Nc2ccncc2)cc1 (stereo not drawn) [Compound 330, 4-{1-Amino-2-[2-(3-chloro-4-fluoro-phenyl)-acetylamino]-ethyl}-N-pyridin-4-yl-benzamide]	0.05 to 0.5	
NC(CNC(=O)Cc1cc(F)ccc1F)c1ccc(C(=O)Nc2ccncc2)cc1 (stereo not drawn) [Compound 331, 4-{1-Amino-2-[2-(2,5-difluoro-phenyl)-acetylamino]-ethyl}-N-pyridin-4-yl-benzamide]	0.5 to 5	
NC(CNC(=O)Cc1ccc(F)cc1Cl)c1ccc(C(=O)Nc2ccncc2)cc1 (stereo not drawn) [Compound 332, 4-{1-Amino-2-[2-(2-chloro-4-fluoro-phenyl)-acetylamino]-ethyl}-N-pyridin-4-yl-benzamide]	0.05 to 0.5	
NC(CNC(=O)Cc1ccc(Cl)cc1F)c1ccc(C(=O)Nc2ccncc2)cc1 (stereo not drawn) [Compound 333, 4-{1-Amino-2-[2-(4-chloro-2-fluoro-phenyl)-acetylamino]-ethyl}-N-pyridin-4-yl-benzamide]	0.05 to 0.5	
CCC(CC)(C(=O)NCC(N)c1ccc(C(=O)Nc2ccncc2)cc1)c1ccccc1 (stereo not drawn) [Compound 334, 4-[1-Amino-2-(2-ethyl-2-phenyl-butyrylamino)-ethyl]-N-pyridin-4-yl-benzamide]	< 0.05	
NC(CNC(=O)C1(c2ccc(F)cc2)CCCC1)c1ccc(C(=O)Nc2ccncc2)cc1 (stereo not drawn) [Compound 336, 4-(1-Amino-2-{[1-(4-fluoro-phenyl)-cyclopentanecarbonyl]-amino}-ethyl)-N-pyridin-4-yl-benzamide]	< 0.05	
NC(CNC(=O)C1(c2cccc(F)c2)CCCC1)c1ccc(C(=O)Nc2ccncc2)cc1 (stereo not drawn) [Compound 341, 4-(1-Amino-2-{[1-(3-fluoro-phenyl)-cyclopentanecarbonyl]-amino}-ethyl)-N-pyridin-4-yl-benzamide]	0.05 to 0.5	
NC(CNC(=O)C1(c2ccc(F)cc2Cl)CCCC1)c1ccc(C(=O)Nc2ccncc2)cc1 (stereo not drawn) [Compound 342, 4-(1-Amino-2-{[1-(2-chloro-4-fluoro-phenyl)-cyclopentanecarbonyl]-amino}-ethyl)-N-pyridin-4-yl-benzamide]	< 0.05	
NC(CNC(=O)C1CCCc2ccccc21)c1ccc(C(=O)Nc2ccncc2)cc1 (stereo not drawn) [Compound 350, 1,2,3,4-Tetrahydro-naphthalene-1-carboxylic acid {2-amino-2-[4-(pyridin-4-ylcarbamoyl)-phenyl]-ethyl}-amide]	0.05 to 0.5	
NC(CNC(=O)C1CCc2ccccc21)c1ccc(C(=O)Nc2ccncc2)cc1 (stereo not drawn) [Compound 351, Indan-1-carboxylic acid {2-amino-2-[4-(pyridin-4-ylcarbamoyl)-phenyl]-ethyl}-amide]	0.05 to 0.5	
NC(CNC(=O)C1CCc2cc(Cl)ccc21)c1ccc(C(=O)Nc2ccncc2)cc1 (stereo not drawn) [Compound 352, 5-Chloro-indan-1-carboxylic acid {2-amino-2-[4-(pyridin-4-ylcarbamoyl)-phenyl]-ethyl}-amide]	< 0.05	
NC(CNC(=O)C1CCc2ccc(F)cc21)c1ccc(C(=O)Nc2ccncc2)cc1 (stereo not drawn) [Compound 354, 6-Fluoro-indan-1-carboxylic acid {2-amino-2-[4-(pyridin-4-ylcarbamoyl)-phenyl]-ethyl}-amide]	0.05 to 0.5	
NC(CC(=O)NC1CCOc2ccccc21)c1ccc(C(=O)Nc2ccncc2)cc1 (stereo not drawn) [Compound 359, 4-[1-Amino-2-(chroman-4-ylcarbamoyl)-ethyl]-N-pyridin-4-yl-benzamide]		0.05 to 0.5
NC(CC(=O)NC1CCSc2ccccc21)c1ccc(C(=O)Nc2ccncc2)cc1 (stereo not drawn) [Compound 360, 4-[1-Amino-2-(thiochroman-4-ylcarbamoyl)-ethyl]-N-pyridin-4-yl-benzamide]		0.05 to 0.5
NC(CC(=O)NC1COc2ccccc21)c1ccc(C(=O)Nc2ccncc2)cc1 (stereo not drawn) [Compound 366, 4-[1-Amino-2-(2,3-dihydro-benzofuran-3-ylcarbamoyl)-ethyl]-N-pyridin-4-yl-benzamide]		0.05 to 0.5
NC(CC(=O)NC1CCCc2sccc21)c1ccc(C(=O)Nc2ccncc2)cc1 (stereo not drawn) [Compound 367, 4-[1-Amino-2-(4,5,6,7-tetrahydro-benzo[b]thiophen-4-ylcarbamoyl)-ethyl]-N-pyridin-4-yl-benzamide]		0.05 to 0.5
NC(CC(=O)NC(c1ccc(Cl)cc1)C1CC1)c1ccc(C(=O)Nc2ccncc2)cc1 (stereo not drawn) [Compound 368, 4-(1-Amino-2-{[(4-chloro-phenyl)-cyclopropyl-methyl]-carbamoyl}-ethyl)-N-pyridin-4-yl-benzamide]		0.5 to 5
NC(CC(=O)NC(c1ccc(F)cc1)C1CCC1)c1ccc(C(=O)Nc2ccncc2)cc1 (stereo not drawn) [Compound 369, 4-(1-Amino-2-{[cyclobutyl-(4-fluoro-phenyl)-methyl]-carbamoyl}-ethyl)-N-pyridin-4-yl-benzamide]		0.05 to 0.5
CC(C)(C(=O)NCC(N)c1ccc(C(=O)Nc2ccncc2)cc1)c1ccc(F)c(F)c1 (stereo not drawn) [Compound 376, 4-{1-Amino-2-[2-(3,4-difluoro-phenyl)-2-methyl-propionylamino]-ethyl}-N-pyridin-4-yl-benzamide]	< 0.05	

Source: patent US20100168102A9, “Amide Derivatives as Kinase Inhibitors” (Devgen NV, priority 2005, published 2010)
